Here are results for five molecules from US20200188471A1 (GUILIN EIGHT PLUS ONE PHARMACEUTICAL CO., LTD., priority 2017, published 2020).

Read-outs that look alike come from different tables or passages of the source. No end group written: not given here.

In assay [1] the test system is CIA mice. The assay is described as follows: Joint histology of CIA mice (HE staining, TNF-α immunohistochemistry, TRAP staining). It is filed as in vivo, DBA/1 mice. As to conditions: for inflammatory cell infiltration / joint damage / joint structure: HE staining of joint.
The test system of assay [2] is CIA mice. The assay is described as follows: Micro-CT detection of bone destruction in CIA mice. It is filed as in vivo, DBA/1 mice. As to conditions: for trabecular bone damage: Micro-CT of trabecular bone; for trabecular bone damage / degree of bone destruction, hind limbs: CIA mice; for degree of bone destruction, hind limbs: peptides 1600 ug/kg, infliximab 4 mg/kg i.p.

Assay [3] relates to CIA mice. Briefly: Treg (Foxp3) and Th1, Th2, Th17 expression in T cells/splenocytes of CIA mice. The assay is classed as in vivo, DBA/1 mice. As to conditions: vs model group; for expression level of Foxp3 in Treg cells: CIA mice; for expression level of IFN-γ (Th1) / expression level of IL-17 (Th17) / expression of IL-4 (Th2): splenocytes of CIA mice. The procedure: (§1) After 3 days of adaptation, DBA/1 mice were weighed and began to model. Six were randomly selected as the normal group, and the rest were the experimental group.
(§2) Day 0: Take bovine type IT collagen (4 mg/ml) and vortex and mix with an equal volume of CFA (4 mg/ml). It is better to not disperse on the water, and 100 ul/head is injected intradermally into the tail of the mouse.
(§3) Day 21: Take bovine type II collagen (4 mg/ml) and vortex mixed with an equal volume of IFA (4 mg/ml) until the droplets are not dispersed on the water. The mice are injected intradermally with 100 ul/head. On the 30th day, the model was successfully established. […] The drug was administered by injection once a day for 18 days.
(§4) One-Way ANOVA statistical analysis of the data using Graphpad Prism 5 was considered statistically significant at P<0.05. “*” indicates P<0.05, “**” indicates P<0.01, and “***” indicates P<0.001.
Studies have shown that Th17 cells secrete high levels of IL-17, which stimulates the secretion of matrix metalloproteinase-1, IL-1β by FLS. TNF-α and other co-inducing NF-κB receptor activator ligands are involved in the bone destruction of RA and inflammatory damage in tissues. The effect was observed by measuring the expression of helper T cells in splenocytes.

Assay [4] deals with CIA mice. The assay is described as follows: Collagen-specific antibody and inflammatory factors in serum of CIA mice (ELISA, multi-factor kit). It is filed as in vivo, DBA/1 mice. The settings on record: 1600 ug/kg i.p., vs model group. The procedure:
as §1, §2, §3, §4
The ELISA kit and multi-factor kit were used to determine the collagen-specific antibody Ig G and pro-inflammatory factors IL-17, TNF-α, IL-6, IFN-γ and anti-inflammatory factor IL-10 in the serum of each group of mice. Compared with the normal control group, the collagen-specific antibody Ig G and the pro-inflammatory factors IL-17, TNF-α, IL-6, IFN-γ in the serum of the model group mice.

Assay [5] has as its target TNFR2. The assay is described as follows: MST, fluorescently labelled TNFR2, TNF-α titrated in the presence of 100 µM SN10; apparent KD.
Assay [6] concerns the target TNFR1. Briefly: MST, fluorescently labelled TNFR1, TNF-α titrated, no SN10.
Assay [7] has as its target TNFR2. Briefly: MST, fluorescently labelled TNFR2, TNF-α titrated, no SN10.
In the next assay the target is TNF-α. The assay is described as follows: MST, fluorescently labelled TNF-α, TNFR1 titrated, no SN10.
Assay [8] concerns the target TNFR1.
Target sequence in this assay (P19438 whole entry): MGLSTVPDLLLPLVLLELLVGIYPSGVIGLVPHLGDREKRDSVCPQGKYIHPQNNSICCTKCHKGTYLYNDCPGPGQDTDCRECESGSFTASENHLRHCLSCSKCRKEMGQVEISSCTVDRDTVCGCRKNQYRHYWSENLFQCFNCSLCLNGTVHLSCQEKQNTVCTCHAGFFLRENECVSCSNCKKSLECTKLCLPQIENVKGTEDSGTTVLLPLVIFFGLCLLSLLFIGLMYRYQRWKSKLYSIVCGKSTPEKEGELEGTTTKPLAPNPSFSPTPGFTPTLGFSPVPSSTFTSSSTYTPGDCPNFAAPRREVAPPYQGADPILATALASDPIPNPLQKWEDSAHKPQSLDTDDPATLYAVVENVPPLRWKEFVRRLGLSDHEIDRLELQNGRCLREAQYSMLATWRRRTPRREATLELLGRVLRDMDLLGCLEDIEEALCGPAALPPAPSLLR
In assay [9] the target is TNFR1. The source holds these as a separate data set.
Target sequence in this assay (P19438 whole entry): as above
For assay [10], the target named is TNFR1. The assay is described as follows: MST, fluorescently labelled TNFR1 with an SN10 dilution series.
Target sequence in this assay (P19438 whole entry): as above
In assay [11] the target is TNFR1. Briefly: BIAcore SPR, TNFR1 coated on CM-5 chip, peptide injected. In general terms: SPR reads the build-up and loss of mass on a sensor chip optically.
Target sequence in this assay (P19438 whole entry): as above
Where [12] appears, read: trabecular bone, Micro-CT, vs model group.

Sequence of TNF-α (ligand) (P01375 77-233): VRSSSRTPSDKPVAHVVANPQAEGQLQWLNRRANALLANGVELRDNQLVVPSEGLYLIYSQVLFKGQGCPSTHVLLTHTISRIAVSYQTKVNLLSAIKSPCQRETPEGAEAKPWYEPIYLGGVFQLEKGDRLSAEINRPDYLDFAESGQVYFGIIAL
Sequence of TNF-α (P01375 77-233): as above

As for “PEG-SN10: Hydrostatin-SN10 modified by mPEG2000, carboxyl of mPEG2000 connected to free amino group of N-terminal aspartic acid (mPEG2000-DEQHLETELH)”, in the assay on CIA mice [1], the inflammatory cell infiltration result is “weak inflammatory cell infiltration”, the joint damage entry was “significantly weakened” and the joint structure result is recorded as “complete joint structure”. In addition, in the assay with CIA mice [1] (TRAP staining, vs model group), the osteoclasts in joints result is reported as “reduced osteoclasts” and the “tartrate-resistant phosphatase (TRAP) in joints” value is reported as “reduced”. The “amount of expression of TNF-α in the joints” value in the assay on CIA mice [1] (immunohistochemistry, vs model group) was “reduced”. The trabecular bone damage result in the assay on CIA mice [2] (vs model group) is given as “significantly reduced bone damage”. The “degree of bone destruction, hind limbs” value in the assay on CIA mice [2] (Micro-CT) is “significantly reduced the degree of bone destruction”. In addition, in the assay with CIA mice [2] (setting [12]), the “bone area/tissue volume (BS/TV)” value is recorded as “significantly up-regulated”, the “bone mineral density (BMD)” value is “significantly up-regulated”, the “bone surface area/bone volume (BS/BV)” value is listed as “significant down” and the “bone volume/tissue volume (BV/TV)” value is “significantly up-regulated”. Besides, in the assay on CIA mice [2] (setting [12]), the “number of trabeculae (Th.N)” value is “significantly up-regulated”, the “trabecular model factor (Tb.pf)” value is on record as “significant down”, the “trabecular separation (Tb.sp)” value is given as “significant down” and the “trabecular thickness (Tb.Th)” value was “significantly up-regulated”. For the same molecule, in the assay on CIA mice [3], the “expression level of Foxp3 in Treg cells” value is given as “significantly increased”, the “expression level of IFN-γ (Th1)” value was “significantly down-regulated”, the “expression level of IL-17 (Th17)” value is given as “significantly down-regulated” and the “expression of IL-4 (Th2)” value is recorded as “up-regulated”. In the assay on CIA mice [4], the “content of IFN-γ in serum” value is on record as “significantly reduced”, the “content of IL-6 in serum” value is reported as “significantly reduced”, the “content of IL-17 in serum” value is given as “significantly reduced” and the “content of TNF-α in serum” value is given as “significantly reduced”. In the assay with CIA mice [4], the “content of anti-inflammatory factor IL10 in serum” value was “Significantly increased” and the “content of collagen-specific antibody Ig G in serum” value is listed as “significantly reduced”.

As for TNF-α (ligand), the Kd with TNFR2 [5] was 384 nM; in the assay with TNFR1 [6], 116 nM; with TNFR2 [7], 328 nM.

For the molecule TNFR1 (receptor), in the assay with TNF-α, the Kd amounted to 2.84 nM.

On to “infliximab: anti-TNF-α monoclonal antibody, positive drug [reference compound]”, for which, in the assay on CIA mice [1], the inflammatory cell infiltration entry was “weak inflammatory cell infiltration”, the joint damage result is “significantly weakened” and the joint structure result was “complete joint structure”. Also, the trabecular bone damage entry with CIA mice [2] (vs model group) was “significantly reduced bone damage”. Besides, in the assay on CIA mice [2] (Micro-CT), the “degree of bone destruction, hind limbs” value is given as “significantly reduced the degree of bone destruction”. Besides, in the assay on CIA mice [3], the “expression level of Foxp3 in Treg cells” value was “significantly increased”, the “expression level of IFN-γ (Th1)” value is listed as “significantly down-regulated”, the “expression level of IL-17 (Th17)” value is “significantly down-regulated” and the “expression of IL-4 (Th2)” value is reported as “up-regulated”.

As for DEQHLETELH (modifications not checked) [selective TNFR1 antagonist peptide Hydrostatin-SN10], the Kd with TNFR1 [8] came to 2830 nM; in the assay with TNFR1 [9], 2780 nM; with TNFR1 [10], 2800 nM; with TNFR1 [11], 2800 nM.
